Test results from article PMC12673918, “Design, Synthesis, and Selective Antiproliferative Activity of Indolizine Derivatives as Microtubule Destabilizers” (Archiv Der Pharmazie, 2025).
Where two headings read alike, the source gives them in different places.

How the values were obtained:
Type in all cases: cell-based
human P2X7 receptor = target: T1, human P2X7 receptor (Homo sapiens, UniProt Q99572); assay: YO‐PRO‐1 dye uptake assay for the P2X7 receptor; settings: for inhibition at 10 µM: P2X7, read-out: % Inhibition of P2X7R at 10 µM compounds’ concentration
T1 construct: host or cells: HEK-293
T1 sequence (Q99572 1-595): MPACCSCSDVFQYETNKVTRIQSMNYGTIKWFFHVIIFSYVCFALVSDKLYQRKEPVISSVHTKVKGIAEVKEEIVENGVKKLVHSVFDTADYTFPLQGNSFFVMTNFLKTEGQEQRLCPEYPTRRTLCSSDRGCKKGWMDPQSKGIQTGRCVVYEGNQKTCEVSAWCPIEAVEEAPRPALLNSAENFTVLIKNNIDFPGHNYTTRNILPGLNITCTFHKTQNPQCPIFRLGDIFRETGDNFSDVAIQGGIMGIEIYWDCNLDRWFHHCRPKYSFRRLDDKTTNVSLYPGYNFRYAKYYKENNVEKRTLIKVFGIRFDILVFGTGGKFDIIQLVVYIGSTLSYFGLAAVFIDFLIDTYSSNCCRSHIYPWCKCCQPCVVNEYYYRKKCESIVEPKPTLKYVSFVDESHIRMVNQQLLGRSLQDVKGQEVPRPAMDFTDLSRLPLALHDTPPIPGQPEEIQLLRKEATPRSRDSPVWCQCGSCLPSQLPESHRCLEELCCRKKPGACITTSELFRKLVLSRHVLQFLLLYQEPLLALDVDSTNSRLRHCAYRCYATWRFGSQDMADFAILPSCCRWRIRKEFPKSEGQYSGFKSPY
Procedure: HEK‐293 cell lines stably expressing human P2X7 receptor (hP2X7R‐HEK‐293, B'SYS GmbH, Witterswil, Switzerland) were maintained in a 50/50 mix of Dulbecco's Modified Eagle Medium and F12 medium (DMEM/F12) supplemented with 9% (v/v) FCS, 1% (v/v) Penicillin/Streptomycin (10000 I.U./mL, 10 mg/mL in 0.9% NaCl) and G418 (100 µg/mL) at 37°C and 5% CO2. Cells were subcultured in cell culture 75 cm^2 flasks and split every 2‐4 days (1:3; 1:6; 1:10) once confluent.
HEK‐293 cell lines stably expressing human P2X7 receptor were seeded into black‐walled Nunc 96‐well optical bottom plates (Thermo Fisher Scientific) at 2.0–4.0 × 10^4 cells/well and incubated at 37°C for 24–48 h. After removing the culture medium, cells were washed with 100 µL wash buffer (280 mM Sucrose; 5.6 mM KCl; 0.5 mM CaCl2; 10 mM D‐Glucose; 10 mM HEPES; 5 mM N‐Methyl‐D‐glucamine (pH 7.4)). Then, 50 µL assay buffer (280 mM Sucrose; 6.4 mM KCl, 10 mM D‐Glucose; 10 mM HEPES; 5.0 mM N‐Methyl‐D‐glucamine (pH 7.4)) and 50 µL of antagonist dilutions (10^–5–10^–9 M) in assay buffer were added, and the cells were incubated at 37°C for 30 min. […] Finally, the uptake of YO‐PRO‐1 dye was recorded in a 9‐point‐well scan by following the fluorescence change using a FlexStation 3 Multi‐Mode Microplate Reader (Molecular Devices, San Jose, CA, USA, Software SoftMax7 Pro, endpoint protocol, well scan with reading pattern “fill scan”, λ ex = 485 nm, λ em = 535 nm). To determine the concentration‐dependent uptake inhibition by antagonists, the YO‐PRO‐1 uptake, expressed as RFU, was plotted against the concentrations of the compounds.

[1] = tested on: HGC‐27 (gastric carcinoma); assay: Resazurin cell viability assay, HGC‐27; settings: 50 µM; for inhibition at 50 µM: Homo sapiens, HGC-27
Procedure: (§1) The tongue squamous cell carcinoma cell line CAL‐27 (ATCC CRL‐2095), breast carcinoma BT‐20 (ATCC HTB‐19), gastric carcinoma HGC‐27 (BCRJ Code 0310), and normal oral fibroblast OHMF (culture of fibroblasts derived from human oral healthy mucosa, approved by the Research Ethics Committee of the University of São Paulo, Campus of Ribeirão Preto, Brazil (with protocol number 049) were cultured in DMEM medium (DMEM, Sigma‐Aldrich, St. Louis, MO, USA) supplemented with 10% fetal bovine serum and a solution of penicillin (100 U/mL) and streptomycin (100 μg/mL). The cultures were maintained in a humidified incubator with 5% CO₂ at 37°C.
(§2) Cell viability was analyzed using the resazurin assay. For this, cells were seeded in 96‐well plates (1 × 10^3 cells per well) and incubated at 37°C with 5% CO₂ overnight for cell adhesion. Subsequently, the cells were treated with different compounds (0–50 µM) for 72 h. After treatment, the medium was replaced with phenol‐free DMEM medium (Sigma‐Aldrich) containing resazurin at a concentration of 44 µM (Sigma‐Aldrich). After incubation for 4 h at 37°C, fluorescence detection was performed (excitation 530/25 nm, emission 590/35 nm) using a microplate fluorimeter (Synergy 2, Biotek). Initial cell growth inhibition assays were performed in triplicate or quadruplicate, while IC50 determinations were conducted in triplicate. Data were plotted, and IC₅₀ values were determined by nonlinear regression using GraphPad Prism software 9.0.
(§3) ^a Cell viability was assessed using the resazurin assay after 72 hours of compound treatment. Fluorescence was measured to estimate % of cellular growth inhibition at 50 µM values, based on triplicate experiments.
(§4) ^b IC50 values were determined using the same resazurin-based assay, with fluorescence measurements performed after 72 hours of treatment. These experiments were carried out in triplicate.

BT‐20 (breast carcinoma) = assay: Resazurin cell viability assay, BT‐20; settings: 50 µM; for inhibition at 50 µM: Homo sapiens, BT-20
Procedure: as §1, §2, §3, §4

human P2X4 receptor = target: T2, human P2X4 receptor (Homo sapiens, UniProt Q99571); assay: Ca2+‐flux assay for the hP2X4 receptor; settings: read-out: % Inhibition of P2X4R at 10 µM compounds’ concentration
T2 construct: expressed in transfected cells; host or cells: human 1321N1 astrocytoma cells
T2 sequence (Q99571 1-388): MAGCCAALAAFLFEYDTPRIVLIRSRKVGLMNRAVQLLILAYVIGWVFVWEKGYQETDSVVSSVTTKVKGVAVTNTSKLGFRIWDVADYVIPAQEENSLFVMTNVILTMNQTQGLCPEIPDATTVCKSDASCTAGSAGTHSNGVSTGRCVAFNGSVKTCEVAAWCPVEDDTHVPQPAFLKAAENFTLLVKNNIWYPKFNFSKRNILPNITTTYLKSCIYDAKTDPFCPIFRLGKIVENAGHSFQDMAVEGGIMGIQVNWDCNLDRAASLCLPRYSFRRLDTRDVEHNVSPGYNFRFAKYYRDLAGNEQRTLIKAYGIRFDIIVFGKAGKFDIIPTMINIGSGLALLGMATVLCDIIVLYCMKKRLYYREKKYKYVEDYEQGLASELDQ
Procedure: Human 1321N1 astrocytoma cells stably expressing the human P2X4 receptor (generated in‐house) were cultured in Dulbecco's Modified Eagle Medium supplemented with 9% (v/v) FCS, 1% (v/v) Penicillin/Streptomycin (10000 I.U./mL, 10 mg/mL in 0.9% NaCl) and puromycin (1 µg/mL) as a selection antibiotic at 37°C and 5% CO2. Cells were subcultured in cell culture 75 cm^2 flasks and split every 2–4 days (1:5; 1:6) once confluent.
1321N1 cells stably expressing human P2X4 receptor were seeded into black‐walled 96‐well plates (Thermo Fisher Scientific) at 2.5 × 10^4 cells/well and incubated at 37°C for 24–48 h. All test compounds were diluted in assay buffer solution (SBS: 135 mM NaCl; 5 mM KCl; 1 mM MgCl2.6 H2O; 1.8 mM CaCl2; 5.6 mM D‐Glucose; 10 mM HEPES, 0.1% (m/v) BSA, 0.05% (m/v) gelatine, 2.3 mM probenecid). The culture medium was removed, and 100 µL of 4 μM fluorescent Ca^2+ indicator Calbryte520AM in SBS was added and incubated at 37°C for 1 h. The dye solution was then removed, 100 µL of SBS solution and 50 µL of antagonist dilutions (10^–5–10^–9 M) in SBS were added, and the cells were incubated at room temperature for an extra 30 min. Finally, 50 µL of ATP (at a concentration of the previously determined EC50‐ value) was added by using FlexStation 3 Multi‐Mode Microplate Reader (Molecular Devices, San Jose, CA, USA, Software SoftMax7 Pro). The changes in intracellular Ca^2+ ion concentrations were monitored over 200 s (20 s baseline) by measuring the fluorescence signal at λ ex = 494 nm and λ em = 516 nm ([…] cut‐off). The concentration‐dependent decrease in Ca^2+‐flux, expressed as RFU, was plotted against the concentrations of the compounds.

CAL‐27 (oral carcinoma) = assay: Resazurin cell viability assay, CAL‐27; settings: 50 µM; for inhibition at 50 µM: Homo sapiens, CAL-27
Procedure: as §1, §2, §3, §4

[2] = 72 h, mean ± SD, n = 3, read-out: % Cellular growth inhibition (at 50 µM) HGC‐27
[3] = 72 h, mean ± SD, n = 3, read-out: % Cellular growth inhibition (at 50 µM) BT‐20
[4] = 72 h, mean ± SD, n = 3, read-out: % Cellular growth inhibition (at 50 µM) CAL‐27
[5] = 72 hours, triplicate, read-out: % Cellular growth inhibition (at 50 µM) HGC-27 (supplement)
[6] = 72 hours, triplicate, read-out: % Cellular growth inhibition (at 50 µM) BT-20 (supplement)
[7] = 72 hours, triplicate, read-out: % Cellular growth inhibition (at 50 µM) CAL-27 (supplement)

inhibition at 10 µM (human P2X7 receptor)	inhibition at 10 µM (human P2X4 receptor)	Compound	inhibition at 50 µM [1, 2]	inhibition at 50 µM (BT‐20 (breast carcinoma); [3])	inhibition at 50 µM (CAL‐27 (oral carcinoma); [4])	other results
10%	-3%	O=C(c1ccc(Cl)cc1)c1ccn2ccccc12 [Compound 6b, (4‐chlorophenyl)(indolizin‐1‐yl)methanone]	26 ± 1%	32 ± 0.8%	25 ± 0.4%	–
-9%	-2%	COc1ccc2c(C(=O)c3ccc(C)cc3)ccn2c1 [Compound 7c, (6‐methoxyindolizin‐1‐yl)(p‐tolyl)methanone]	13 ± 0.7%	15 ± 0.5%	20 ± 0.7%	–
–	–	COc1cc(C(=O)c2ccn3ccccc23)cc(OC)c1OC [Compound 6f, (Indolizin‐1‐yl)(3,4,5‐Trimethoxyphenyl)Methanone]	38 ± 1.6%	43 ± 0.5%	57 ± 0.9%	–
4%	1%	COc1ccc2c(C(=O)c3ccc(Cl)cc3)ccn2c1 [Compound 7b, (4‐chlorophenyl)(6‐methoxyindolizin‐1‐yl)methanone]	10 ± 1.4%	8 ± 1.3%	23 ± 1%	–
–	–	O=C(c1ccccc1)c1ccn2ccccc12 [Compound 6a, (Indolizin‐1‐yl)(phenyl)methanone]	20 ± 1.1%	26 ± 1%	15 ± 0.8%	–
–	–	1‐(4‐methoxyphenyl)‐2‐(pyridin‐2‐yl)ethanone [Compound 4c]	–	–	–	% Cellular growth inhibition (at 50 µM) HGC-27 (supplement) ([1]; 72 hours, triplicate): 14.1 ± 1.8%; % Cellular growth inhibition (at 50 µM) BT-20 (supplement) (BT‐20 (breast carcinoma); 72 hours, triplicate): 13.7 ± 0.7%; % Cellular growth inhibition (at 50 µM) CAL-27 (supplement) (CAL‐27 (oral carcinoma); 72 hours, triplicate): 9.0 ± 0.8%
–	–	O=C(NCC12CC3CC(CC(C3)C1)C2)c1cc(CCCNCCCO)ccc1Cl [AZD9056, reference compound]	–	–	–	IC50 (human P2X7 receptor; reference compound, same conditions, read-out: pIC50 at P2X7R (converted)): 10.5 nM
–	–	O=C(Cc1ccccn1)c1ccccc1 [Compound 4a, 1‐phenyl‐2‐(pyridin‐2‐yl)ethanone]	–	–	–	inhibition at 50 µM [1, 5]: 2.4 ± 0.9%; inhibition at 50 µM (BT‐20 (breast carcinoma); [6]): 7.5 ± 0.5%; inhibition at 50 µM (CAL‐27 (oral carcinoma); [7]): 12.2 ± 2%
–	–	COc1cc(C(=O)Cc2ccccn2)cc(OC)c1OC [Compound 4f, 2‐(pyridin‐2‐yl)‐1‐(3,4,5‐trimethoxyphenyl)ethenone]	10 ± 0.7%	19 ± 1.2%	20 ± 2.2%	–
–	–	O=C(Cc1ccccn1)c1ccc(Cl)c(Cl)c1 [Compound 4e, 1‐(3,4‐dichlorophenyl)‐2‐(pyridin‐2‐yl)ethanone]	–	–	–	inhibition at 50 µM [1, 5]: 36.9 ± 0.8%; inhibition at 50 µM (BT‐20 (breast carcinoma); [6]): 43.3 ± 0.6%; inhibition at 50 µM (CAL‐27 (oral carcinoma); [7]): 22.3 ± 1.3%
–	–	O=C(Cc1ccccn1)c1ccc(Cl)cc1 [Compound 4b, 1‐(4‐chlorophenyl)‐2‐(pyridin‐2‐yl)ethanone]	–	–	–	inhibition at 50 µM [1, 5]: 16.1 ± 1.6%; inhibition at 50 µM (BT‐20 (breast carcinoma); [6]): 17.3 ± 1.8%; inhibition at 50 µM (CAL‐27 (oral carcinoma); [7]): 11.4 ± 0.4%
–	–	2‐(pyridin‐2‐yl)‐1‐(p‐tolyl)ethanone [Compound 4d]	–	–	–	% Cellular growth inhibition (at 50 µM) HGC-27 (supplement) ([1]; 72 hours, triplicate): 17.3 ± 1.2%; % Cellular growth inhibition (at 50 µM) BT-20 (supplement) (BT‐20 (breast carcinoma); 72 hours, triplicate): 17.4 ± 0.6%; % Cellular growth inhibition (at 50 µM) CAL-27 (supplement) (CAL‐27 (oral carcinoma); 72 hours, triplicate): 12.6 ± 1.2%

Compound	inhibition at 10 µM (human P2X7 receptor)	inhibition at 10 µM (human P2X4 receptor)	inhibition at 50 µM [1, 2]	inhibition at 50 µM (BT‐20 (breast carcinoma); [3])	inhibition at 50 µM (CAL‐27 (oral carcinoma); [4])	other results
CCOc1cn2cc(OC)ccc2c1C(=O)c1cc(OC)c(OC)c(OC)c1 [Compound 8c, (2‐ethoxy‐6‐methoxyindolizin‐1‐yl)(3,4,5‐trimethoxyphenyl)methanone]	3%	10%	43 ± 3.5%	55 ± 4.7%	56 ± 4.6%	–
CCCCCc1cn2cc(OC)ccc2c1C(=O)c1cc(OC)c(OC)c(OC)c1 [Compound 8i, (6‐methoxy‐2‐pentylindolizin‐1‐yl)(3,4,5‐trimethoxyphenyl)methanone]	6%	-1%	61 ± 1.5%	38 ± 3.5%	57 ± 2.5%	–
